Test results as given in PMC10821124, “Dimeric 3,5-Bis(benzylidene)-4-piperidones: Tumor-Selective Cytotoxicity and Structure-Activity Relationships” (Medicines, 2024).

How the values were obtained:
[1] = Cytotoxicity, average over the three human normal cells; type: cell-based; details: human, average of HGF, HPC, HPLF; read-out: AVE CC50, human normal cells
Procedure: (§1) Human promyelocytic leukemia [HL-60 (RCB3683)] (purchased from Riken Cell Bank, Tsukuba, Japan) was cultured at 37 °C in RPMI1640 medium (Fujifilm Wako Pure Chemical Co., Osaka, Japan) supplemented with 10% heat (56 °C, 30 min) inactivated FBS (Sigma-Aldrich Inc. St. Louis, MO, USA), 100 U/mL penicillin G, and 100 µg/mL streptomycin sulfate in a humidified 5% CO2 incubator (MCO-170 AICUVD-P, Panasonic Healthcare Co., Ltd., Gunma, Japan). Human oral squamous cell carcinoma (OSCC) cell lines derived from tongue [HSC-2 (RCB1945), HSC-3 (RCB1975), HSC-4 (RCB1902)] (Riken Cell Bank), and human normal oral cells (gingival fibroblasts, HGF; pulp cell, HPC; periodontal ligament fibroblast, HPLF), established from the first premolar extracted tooth in the lower jaw and periodontal tissues of a child, according to the guidelines of Meikai University Ethic Committee (No. A0808), were cultured in DMEM medium (Fujifilm Wako Pure Chemical Co.) supplemented with 10% FBS and antibiotics. The compounds in Series 2–4 were evaluated against HL-60, HSC-2, HSC-3, HSC-4, HGF, HPC, and HPLF cells based on a literature procedure, as described previously. In brief, near confluent cells were incubated in triplicate for 48 h at 37 °C with different concentrations ([…], 6.3, 12.5, 25, 50, 100 µM) of the compounds; then, viable cell numbers were measured using the MTT method. From the dose–response curve, a 50% cytotoxic concentration (CC50) was determined. All samples were dissolved in dimethylsulfoxide (DMSO). The toxicity of DMSO alone was calculated and subtracted. The CC50 values were determined from dose–response curves.

[2] = tested on: human oral squamous cell carcinoma HSC-2 cells; assay: Cytotoxicity, MTT method, HSC-2 cells; type: cell-based; details: for CC50: Homo sapiens, HSC-2, 48 h, MTT, mean ± SD, read-out: CC50 HSC-2; for SI (selectivity index) HSC-2: average CC50 non-malignant cells / CC50 HSC-2
Procedure: as §1

[3] = tested on: human tumour cell lines HL-60, HSC-2, HSC-3, HSC-4; assay: Cytotoxicity, average over the four human tumour cell lines; type: cell-based; details: for CC50: Homo sapiens, average of HL-60, HSC-2, HSC-3, HSC-4, read-out: AVE. CC50, human tumour cell lines; for AVE SI: average of the four SI values; for PSE (potency-selectivity expression): product of reciprocal of average CC50 (neoplastic cells) and average SI times 100; for CC50 values in all four bioassays (range in words): HL-60, HSC-2, HSC-3, HSC-4
Procedure: as §1

[4] = Cytotoxicity, MTT method, HGF non-malignant cells; type: cell-based, human; details: human, gingival fibroblasts (HGF), non-malignant, mean ± SD
Procedure: as §1

[5] = tested on: human oral squamous cell carcinoma HSC-4 cells; assay: Cytotoxicity, MTT method, HSC-4 cells; type: cell-based; details: for CC50: Homo sapiens, HSC-4, 48 h, MTT, mean ± SD, read-out: CC50 HSC-4; for SI (selectivity index) HSC-4: average CC50 non-malignant cells / CC50 HSC-4
Procedure: as §1

[6] = Cytotoxicity, MTT method, HPLF non-malignant cells; type: cell-based, human; details: human, periodontal ligament fibroblasts (HPLF), non-malignant, mean ± SD
Procedure: as §1

[7] = tested on: human oral squamous cell carcinoma HSC-3 cells; assay: Cytotoxicity, MTT method, HSC-3 cells; type: cell-based; details: for CC50: Homo sapiens, HSC-3, 48 h, MTT, mean ± SD, read-out: CC50 HSC-3; for SI (selectivity index) HSC-3: average CC50 non-malignant cells / CC50 HSC-3
Procedure: as §1

[8] = tested on: human promyelocytic leukemia HL-60 cells; assay: Cytotoxicity, MTT method, HL-60 cells; type: cell-based; details: for CC50: Homo sapiens, HL-60, 48 h, MTT, mean ± SD, read-out: CC50 HL-60; for SI (selectivity index) HL-60: average CC50 non-malignant cells / CC50 HL-60
Procedure: as §1

[9] = Cytotoxicity, MTT method, HPC non-malignant cells; type: cell-based, human; details: human, pulp cells (HPC), non-malignant, mean ± SD
Procedure: as §1

Compound	CC50 at 48 h [1] [nM]	CC50 [2] [nM]	SI (selectivity index) HSC-2 [2]	CC50 [3] [nM]	AVE SI [3]	PSE (potency-selectivity expression) [3]	CC50 at 48 h [4] [nM]	CC50 [5] [nM]	SI (selectivity index) HSC-4 [5]	CC50 at 48 h [6] [nM]	CC50 [7] [nM]	SI (selectivity index) HSC-3 [7]	CC50 [8] [nM]	SI (selectivity index) HL-60 [8]	CC50 at 48 h [9] [nM]	CC50 values in all four bioassays (range in words) [3]
O=C1/C(=C/c2ccccc2)CN(C(=O)C(=O)N2C/C(=C\c3ccccc3)C(=O)/C(=C/c3ccccc3)C2)C/C1=C\c1ccccc1 [Compound 2a]	3260	85 ± 13	38.4	140	26.5	> 100	3800 ± 520	200 ± 11	16.3	5300 ± 500	150 ± 22	21.7	110 ± 9	29.6	680 ± 73	–
O=C1/C(=C/c2ccc(F)cc2)CN(C(=O)C(=O)N2C/C(=C\c3ccc(F)cc3)C(=O)/C(=C/c3ccc(F)cc3)C2)C/C1=C\c1ccc(F)cc1 [Compound 2b]	1500	37 ± 9	40.5	40	37.3	–	1200 ± 100	33 ± 9	45.5	1900 ± 360	66 ± 8	22.7	37 ± 17	40.5	1400 ± 110	double-digit nanomolar range
O=C1/C(=C/c2ccc(Cl)c(Cl)c2)CN(C(=O)C(=O)N2C/C(=C\c3ccc(Cl)c(Cl)c3)C(=O)/C(=C/c3ccc(Cl)c(Cl)c3)C2)C/C1=C\c1ccc(Cl)c(Cl)c1 [Compound 2d]	34300	5900 ± 120	5.81	7280	4.83	–	36000 ± 3100	6400 ± 150	5.36	44000 ± 3200	8400 ± 870	4.08	8400 ± 17	4.08	23000 ± 3100	–
Cc1ccc(/C=C2\CN(C(=O)C(=O)N3C/C(=C\c4ccc(C)cc4)C(=O)/C(=C/c4ccc(C)cc4)C3)C/C(=C\c3ccc(C)cc3)C2=O)cc1 [Compound 2e]	45000	1800 ± 250	25.0	2780	18.0	–	45000 ± 4600	2300 ± 250	19.6	67000 ± 4500	4300 ± 1100	10.5	2700 ± 780	16.7	23000 ± 1200	–
COc1ccc(/C=C2\CN(C(=O)C(=O)N3C/C(=C\c4ccc(OC)c(OC)c4)C(=O)/C(=C/c4ccc(OC)c(OC)c4)C3)C/C(=C\c3ccc(OC)c(OC)c3)C2=O)cc1OC [Compound 2f]	12500	420 ± 25	29.8	250	57.0	–	24000 ± 1100	160 ± 24	78.1	11000 ± 980	230 ± 97	54.4	190 ± 26	65.8	2400 ± 700	–
COc1cc(/C=C2\CN(C(=O)C(=O)N3C/C(=C\c4cc(OC)c(OC)c(OC)c4)C(=O)/C(=C/c4cc(OC)c(OC)c(OC)c4)C3)C/C(=C\c3cc(OC)c(OC)c(OC)c3)C2=O)cc(OC)c1OC [Compound 2g]	570	63 ± 9	9.05	60	11.8	> 100	470 ± 140	88 ± 29	6.48	950 ± 12	35 ± 6	16.3	37 ± 2	15.4	280 ± 70	double-digit nanomolar range
O=C1/C(=C/c2ccccc2)CN(C(=O)CC(=O)N2C/C(=C\c3ccccc3)C(=O)/C(=C/c3ccccc3)C2)C/C1=C\c1ccccc1 [Compound 3a]	920	50 ± 1	18.4	60	17.4	–	1100 ± 10	84 ± 5	11.0	1300 ± 330	46 ± 26	20.0	46 ± 9	20.0	360 ± 100	double-digit nanomolar range
Cc1ccc(/C=C2\CN(C(=O)CC(=O)N3C/C(=C\c4ccc(C)cc4)C(=O)/C(=C/c4ccc(C)cc4)C3)C/C(=C\c3ccc(C)cc3)C2=O)cc1 [Compound 3e]	24700	1600 ± 390	15.4	1780	14.3	–	20000 ± 1300	1900 ± 150	13.0	35000 ± 4200	2200 ± 200	11.2	1400 ± 150	17.6	19000 ± 2700	–
COc1ccc(/C=C2\CN(C(=O)CC(=O)N3C/C(=C\c4ccc(OC)c(OC)c4)C(=O)/C(=C/c4ccc(OC)c(OC)c4)C3)C/C(=C\c3ccc(OC)c(OC)c3)C2=O)cc1OC [Compound 3f]	1500	340 ± 76	4.41	230	7.35	–	1100 ± 84	128 ± 14	11.7	1800 ± 50	200 ± 140	7.50	260 ± 21	5.77	1600 ± 78	–
